# Source: publication PMC8551653, “Bisphenol A derivatives act as novel coactivator-binding inhibitors for estrogen receptor β” (The Journal of Biological Chemistry, 2021)
# Entries after “also recorded” stand apart in the source; their conditions may differ.
# Experiments:
# ERβ(W335A) [1] = target: T1, ERβ(W335A) (Homo sapiens, UniProt Q92731, W335A); assay: Luciferase reporter gene assay in HeLa cells, ERβ(W335A); assay type: cell-based; parameters: expressed in transfected cells; host or cells: HeLa
# Experimental: HeLa cells were maintained in Eagle's minimum essential medium (Nissui Pharmaceutical Co, Ltd) supplemented with DCC-treated fetal bovine serum (10%, v/v) at 37 °C under 5% CO2. […] After incubation for 24 h, cells were harvested and seeded onto 96-well plates at 5 × 10^4 cells/well, and then treated with a series of the test compounds (10^−12 M to 10^−5 M, final concentration) diluted with 1% bovine serum albumin/PBS (v/v). After a 24-h incubation, luciferase activity was measured using the ONE-Glo Luciferase Assay System (Promega Co) on an EnSpire multimode plate reader (PerkinElmer, Inc).
# Target sequence in this assay (Q92731 whole entry W335A): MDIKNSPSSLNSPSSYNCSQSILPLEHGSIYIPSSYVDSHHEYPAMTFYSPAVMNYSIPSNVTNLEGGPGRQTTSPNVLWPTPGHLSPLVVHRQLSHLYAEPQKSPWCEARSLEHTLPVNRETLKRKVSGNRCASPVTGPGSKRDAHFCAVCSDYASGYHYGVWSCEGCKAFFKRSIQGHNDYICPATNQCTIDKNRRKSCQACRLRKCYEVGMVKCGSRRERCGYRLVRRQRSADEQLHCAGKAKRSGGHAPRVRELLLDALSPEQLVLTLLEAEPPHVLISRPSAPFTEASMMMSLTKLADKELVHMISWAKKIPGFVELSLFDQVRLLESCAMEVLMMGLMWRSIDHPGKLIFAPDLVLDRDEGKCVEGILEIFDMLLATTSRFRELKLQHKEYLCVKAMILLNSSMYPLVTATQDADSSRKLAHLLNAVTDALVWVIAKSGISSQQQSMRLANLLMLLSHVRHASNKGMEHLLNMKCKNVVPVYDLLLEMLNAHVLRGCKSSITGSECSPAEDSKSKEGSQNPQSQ
# ERβ [2] = target: T2, ERβ (Homo sapiens, UniProt Q92731); assay: Luciferase reporter gene assay in HeLa cells, antagonistic activity against 10 nM E2; assay type: cell-based; parameters: expressed in transfected cells; host or cells: HeLa; settings: against 10 nM E2-induced ERβ activation; 100 nM, 1 μM, 10 μM
# Experimental: (§1) HeLa cells were maintained in Eagle's minimum essential medium (Nissui Pharmaceutical Co, Ltd) supplemented with DCC-treated fetal bovine serum (10%, v/v) at 37 °C under 5% CO2. […] After a 24-h incubation, luciferase activity was measured using the ONE-Glo Luciferase Assay System (Promega Co) on an EnSpire multimode plate reader (PerkinElmer, Inc).
# Target sequence in this assay (Q92731 whole entry): as the sequence (Q92731 whole entry W335A) above, with A335W counted along it
# ERβ [3] = target: T2, ERβ; assay: Radioligand competitive binding assay with [3H]E2 for ERβ (GST-ERβ-LBD); parameters: made in house; host or cells: Escherichia coli BL21α; settings: relative to E2
# Experimental: Human ERβ cDNA was obtained from OriGene Technologies. The cDNA of ERβ-LBD was amplified using PCR and subcloned into a pGEX-6p-1 expression vector. The expression of GST-fused ERβ-LBD was induced by 1 mM IPTG in Escherichia coli BL21α at 16 °C for overnight. The resulting crude protein was affinity-purified using Glutathione-Sepharose 4B (Cytiva), followed by gel filtration using a Sephadex G-10 column (Cytiva).
# Target sequence in this assay (Q92731 263-530): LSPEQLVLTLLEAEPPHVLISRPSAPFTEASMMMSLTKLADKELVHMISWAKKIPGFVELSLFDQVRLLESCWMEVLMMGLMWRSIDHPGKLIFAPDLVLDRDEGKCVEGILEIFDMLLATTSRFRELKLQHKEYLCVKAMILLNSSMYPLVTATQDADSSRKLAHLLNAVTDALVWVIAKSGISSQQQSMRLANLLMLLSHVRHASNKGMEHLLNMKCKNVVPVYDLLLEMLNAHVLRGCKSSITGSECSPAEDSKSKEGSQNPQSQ
# ERβ(W335A) [4] = target: T1, ERβ(W335A); assay: Competitive binding assay for ERβ(W335A); parameters: made in house; host or cells: Escherichia coli BL21α (described for the wild-type LBD); settings: Fig. 4B
# Experimental: (§2) After successive incubation with 100 μl of 0.4% dextran-coated charcoal (DCC) (Sigma-Aldrich) in PBS (pH 7.4) on ice for 10 min, free radioligands bound to DCC were removed using a vacuum filtration system with a 96-well filtration plate (MultiScreenHTS HV, […], Merck KGaA) for the bound/free separation. The radioactivity of each eluent was measured using a liquid scintillation counter (LS6500; Beckman Coulter) and Clear-sol I (Nacalai Tesque Inc). […] Each compound was dissolved in dimethyl sulfoxide to prepare a 1.0 mM stock solution and further diluted to prepare serial dilutions (10^−12 M to 10^−5 M) in the binding buffer. […] Bound/free separation was performed as described above, and the radioactivity was determined using a MicroBeta microplate counter (PerkinElmer Inc). The IC50 value of each test compound was calculated from the dose–response curves generated via nonlinear regression analysis using Prism software (GraphPad Software Inc).
# Target sequence in this assay (Q92731 263-530 W335A): as the sequence (Q92731 263-530) above, with W73A counted along it
# ERβ [5] = target: T2, ERβ; assay: Competitive binding assay with [3H]4OHT for WT ERβ; parameters: made in house; host or cells: Escherichia coli BL21α; settings: [3H]4OHT radioligand
# Experimental: as §2
# Target sequence in this assay (Q92731 263-530): as the sequence (Q92731 263-530) above
# ERβ [6] = target: T2, ERβ; assay: Luciferase reporter gene assay in HeLa cells, agonistic activity; assay type: cell-based; parameters: expressed in transfected cells; host or cells: HeLa; settings: HeLa cells, WT ERβ; listed as BPA
# Experimental: as §1
# Target sequence in this assay (Q92731 whole entry): as the sequence (Q92731 whole entry W335A) above, with A335W counted along it
# [7] = target: T3, GST-fused ligand-binding domain of human estrogen receptor β (amino acids 263–530) (human, UniProt Q92731 263-530); assay: SPR; Biacore T100; GST-ERβ-LBD without E2, captured on anti-GST antibody on a CM5 chip; SRC1 peptide injected; HBS-EP+ buffer; settings: both partners purified
# T3 construct: cDNA from OriGene Technologies; Subcloned into pGEX-6p-1; Captured on the chip through an anti-GST antibody; Incubated beforehand with 10 μM E2 or 10 μM BPC (small molecules) in two of the three SPR conditions; also called GST-ERβ-LBD; ERβ-LBD; source: E. coli BL21α, purified (Glutathione-Sepharose 4B, gel filtration on Sephadex G-10)
# [8] = target: T3, GST-fused ligand-binding domain of …; assay: SPR; Biacore T100; GST-ERβ-LBD incubated with 10 μM E2 for 1 h, captured on anti-GST antibody on a CM5 chip at 25 °C; SRC1 peptide injected with E2; HBS-EP+ buffer (0.01 M Hepes pH 7.4, 0.15 M NaCl, 3 mM EDTA, 0.05% Surfactant P20); settings: both partners purified
# [9] = target: T3, GST-fused ligand-binding domain of …; assay: SPR; Biacore T100; GST-ERβ-LBD incubated with 10 μM BPC for 1 h, captured on anti-GST antibody on a CM5 chip at 25 °C; SRC1 peptide injected with BPC; HBS-EP+ buffer; settings: both partners purified
# T3 sequence (Q92731 263-530): as the sequence (Q92731 263-530) above
Molecule,transcriptional activity on ERβ(W335A) (in words) (ERβ(W335A) [1]),ERβ antagonist activity (in words) (ERβ [2]),"affinity for ERβ, times weaker than that of E2 (ERβ [3])","shape of competitive binding curve, ERβ(W335A) (ERβ(W335A) [4])","shape of competitive binding curve, WT ERβ (ERβ [5])",ERβ agonist activity (in words) (ERβ [6]),Kd [7],Kd [8],Kd [9]
"CC(C)(c1ccc(O)cc1)c1ccc(O)cc1 [Compound 19, 4,4'-(propane-2,2-diyl)diphenol]",lost,did not elicit antagonistic activity,400 times,typical sigmoidal competitive dose–response curve,sigmoidal curve,full agonist activity; also recorded: strongest ERβ agonistic activity; also recorded: strong transcriptional activity,,,
"ERHKILHRLLQEG (source: synthetic peptide (ABI 433A, solid phase, Fmoc chemistry)) [SRC1 peptide (amino acids 685–697) derived from human nuclear receptor coactivator 1]",,,,,,,9.1 µM,3.3 µM,16.4 µM
